Where a SMILES comes first, the peptide text is derived from it.
Key:
T2 cells = test: Induction of human CTLs from PBMCs, 51Cr release assay against peptide-pulsed T2 cells; assay type: cell-based; conditions: CTLs from PBMCs of two HLA-A2-positive healthy donors, three stimulations with peptide-pulsed DCs
From the text: (§1) Human RAB6KIFL-derived peptides (purity>95%), carrying binding motifs for HLA-A2 (A*0201)-encoded molecules, were selected using the BIMAS software program (BioInformatics and Molecular Analysis Section, Center for Information Technology, NIH, Bethesda, Md.) and 36 peptides were synthesized (American Peptide Company, CA, USA) (Tables 1A and B). Monocyte-derived DCs were used as antigen-presenting cells to induce CTL responses against peptides presented in the context of HLA. DCs were generated in vitro culture as described previously (Yoshitake Y, et al. Clin Cancer Res 2004; 10:6437-48, Harao M, et al. Int J Cancer 2008; in press, Imai K, et al. Clin Cancer Res 2008; in press). Briefly, PBMCs isolated from a normal volunteer positive for HLA-A2 using Ficoll-Plaque (GE Healthcare UK, Ltd., Buckinghamshire, UK) solution were sorted to CD8^+ population and CD14^+ population with microbeads (Miltenyi Biotec, Bergisch Gladbach, Germany). To generate DCs, the CD14^+ population was cultured in the presence of 100 ng/mL granulocyte-macrophage colony-stimulating factor (GM-CSF; PeproTec Inc., NJ, USA) and 10 ng/mL interleukin (IL)-4 (PeproTec) in AIM-V (Invitrogen) containing 2% heat-inactivated autologous plasma. After 5 days of culture, OK-432 was added into the dish to make the DCs mature. […]
(§2) The CTLs were cocultured with each of the cancer cells, or the peptide-pulsed T2 cells, as a target cell (5×10^3/well) at the indicated effector/target ratio and a standard ^51Cr release assay was done as described previously (Yoshitake Y, et al. Clin Cancer Res 2004; 10:6437-48. Imai K, et al. Clin Cancer Res 2008; in press). […] After 6 h incubation, 50 micro L of the supernatant was collected from each well and the radioactivity was quantified using a gamma counter. The specific cytotoxicity was evaluated by calculating the percentage of specific ^51Cr release. […]

PANC1 = test: 51Cr release assay of peptide-induced CTLs against PANC1; assay type: cell-based, human; conditions: PANC1 (RAB6KIFL+, HLA-A2+); healthy donors
From the text: as §1, §2

CaCo-2 = test: 51Cr release assay of peptide-induced CTLs against CaCo-2; assay type: cell-based, human; conditions: CaCo-2 (RAB6KIFL+, HLA-A2+); healthy donors
From the text: as §1, §2

SKHep1/RAB6KIFL = test: 51Cr release assay of peptide-induced CTLs against SKHep1/RAB6KIFL; assay type: cell-based, human; conditions: SKHep1 transfected with RAB6KIFL gene (RAB6KIFL high, HLA-A2+)
Protocol: (§3) A lentiviral vector-mediated gene transfer was performed as described previously (Imai K, et al. Clin Cancer Res 2008; 14:6487-95, Tahara-Hanaoka S, et al. Exp Hematol 2002; 30:11-7). Briefly, 17 micro-g of CSII-CMV-RfA and CSIIEF-RfA self-inactivating vectors (Miyoshi H, et al. J Virol 1998; 72: 8150-7) carrying RAB6KIFL cDNAs and 10 micro-g of pCMV-VSV-G-RSV-Rev and pCAG-HIVgp were transfected into the 293T cells grown in a 10-cm culture dish using Lipofectamine 2000 reagent (Invitrogen Corporation, Carlsbad, Calif., USA). After 60 hr of transfection, the medium was recovered and the viral particles were pelleted by ultra-centrifugation (50,000×g, 2 hr). The pellet was suspended in 50 micro-L of RPMI 1640 medium and 10 micro-L of viral suspension was added to 5×10^4 SKHep1 cells, per well in a flat-bottom 96-well plate. The expression of the transfected RAB6KIFL gene was confirmed by a Western blot analysis.
as §1, with “Germany).” for “Germany). To generate DCs, the CD14^+ population was cultured in the presence of 100 ng/mL granulocyte-macrophage colony-stimulating factor (GM-CSF; PeproTec Inc., NJ, USA) and 10 ng/mL interleukin (IL)-4 (PeproTec) in AIM-V (Invitrogen) containing 2% heat-inactivated autologous plasma. After 5 days of culture, OK-432 was added into the dish to make the DCs mature.”

SKHep1/Mock = test: 51Cr release assay of peptide-induced CTLs against SKHep1/Mock; assay type: cell-based, human; conditions: mock-transfected SKHep1
Protocol: as §3
as §1, with “Germany).” for “Germany). To generate DCs, the CD14^+ population was cultured in the presence of 100 ng/mL granulocyte-macrophage colony-stimulating factor (GM-CSF; PeproTec Inc., NJ, USA) and 10 ng/mL interleukin (IL)-4 (PeproTec) in AIM-V (Invitrogen) containing 2% heat-inactivated autologous plasma. After 5 days of culture, OK-432 was added into the dish to make the DCs mature.”

HLA-A2 (HHD) Tgm = test: Autoimmune phenomenon after peptide vaccination: immunohistochemistry with anti-CD4/anti-CD8 mAb and observation; assay type: in vivo, mouse
Protocol: Western blotting and immunohistochemical staining of RAB6KIFL protein were performed as described previously (Nakatsura T, et al. Biochem Biophys Res Commun 2001; 281:936-44. Yoshitake Y, et al. Clin Cancer Res 2004; 10:6437-48). For Western blotting analyses of human normal tissues, a pre-made human adult normal tissue blot (Biochain, Hayward, Calif.) was used. The primary antibodies used herein, anti-RAB6KIFL polyclonal antibody, and monoclonal anti-b-actin antibody, were purchased from Bethyl Laboratories, Inc. (Montgomery, Tex., USA) and Sigma (Steinheim, Germany), respectively. Immunohistochemical staining of CD4 or CD8 in tissue specimens of HLA-A2.1 (HHD) Tgm immunized with the RAB6KIFL-A2-10-284 peptide was done as described previously (Matsuyoshi H, et al. 2004; 172:776-86).
It is very important to investigate whether the immunization with RAB6KIFL peptide induce an autoimmune reaction or not. We thus performed the immunohistochemical analysis of several vital organs with anti-CD4 and anti-CD8 mAb in HLA-A2 (HHD) Tgm after two-times vaccination with RAB6KIFL-A2-9-809 peptide, of which amino-acid sequences were completely conserved between human and mouse RAB6KIFL. […] The abnormalities frequently observed in mice affected with autoimmune diseases such as abnormal hair and skin, diarrhea and weight loss were also not observed in these mice.

[1] = tested on: cancer cells expressing both RAB6KIFL and HLA-A2; test: Comparison of the cytotoxicity of CTLs induced by the three peptides; assay type: cell-based, human; conditions: vs RAB6KIFL-A2-9-12 and RAB6KIFL-A2-10-284
Protocol: The CTLs were cocultured with each of the cancer cells, or the peptide-pulsed T2 cells, as a target cell (5×10^3/well) at the indicated effector/target ratio and a standard ^51Cr release assay was done as described previously (Yoshitake Y, et al. Clin Cancer Res 2004; 10:6437-48. Imai K, et al. Clin Cancer Res 2008; in press). Briefly, target cells were labeled with 3.7 KBq […] (Perkin Elmer Life Sciences) for 1 h at 37 degree C. in a CO2 incubator. Labeled target cells were rinsed three times, and peptide-pulsed target cells were prepared by incubating the cells with 20 micro g/mL peptide for 3 h at 37 degrees C. Target cells were mixed with effector cells in final volume of 200 micro L in flat-bottomed microtiter plates and incubated. After 6 h incubation, 50 micro L of the supernatant was collected from each well and the radioactivity was quantified using a gamma counter. The specific cytotoxicity was evaluated by calculating the percentage of specific ^51Cr release.
The potential of RAB6KIFL as an immunotherapeutic target was verified herein by identifying the HLA-A2-restricted epitope peptides and evaluating their immunogenicity. […]

| SMILES | cytotoxic activity of induced CTLs to T2 cells pulsed with the peptide (T2 cells) | cytotoxicity of peptide-stimulated CTLs to PANC1 (PANC1) | cytotoxicity of peptide-stimulated CTLs to CaCo-2 (CaCo-2) | cytotoxicity of peptide-induced CTLs against SKHep1/RAB6KIFL (SKHep1/RAB6KIFL) | cytotoxicity of peptide-induced CTLs against SKHep1/Mock (SKHep1/Mock) | pathologic change (lymphocyte infiltration or tissue destruction suggesting autoimmunity) in vital organs (HLA-A2 (HHD) Tgm; after two-times vaccination, anti-CD4 and anti-CD8 staining) | abnormalities of autoimmune disease (abnormal hair and skin, diarrhea, weight loss) (HLA-A2 (HHD) Tgm; mouse, in vivo) | cytotoxicity of peptide-induced CTLs compared with CTLs induced by the other two peptides [1] |
| --- | --- | --- | --- | --- | --- | --- | --- | --- |
| CC(C)C[C@H](NC(=O)[C@@H](N)CC(C)C)C(=O)N[C@@H](CO)C(=O)N[C@@H](CC(=O)O)C(=O)N[C@@H](CC(=O)O)C(=O)N[C@@H](CC(=O)O)C(=O)N[C@H](C(=O)N[C@H](C(=O)N[C@H](C(=O)O)C(C)C)C(C)C)C(C)C [RAB6KIFL-A2-9-12, LLSDDDVVV] (H-LLSDDDVVV-OH; N-terminus and C-terminus assumed) | exhibited cytotoxic activity | exhibited cytotoxicity | exhibited cytotoxicity | exhibited cytotoxicity | but not against SKHep1/Mock | – | – | – |
| CC[C@H](C)[C@H](NC(=O)[C@@H](N)CS)C(=O)N[C@@H](C)C(=O)N[C@@H](CCC(=O)O)C(=O)N[C@@H](CCC(N)=O)C(=O)N[C@@H](Cc1ccc(O)cc1)C(=O)N[C@@H](Cc1c[nH]cn1)C(=O)N[C@H](C(=O)N[C@H](C(=O)O)C(C)C)[C@@H](C)O [RAB6KIFL-A2-9-809, CIAEQYHTV] (H-CIAEQYHTV-OH; N-terminus and C-terminus assumed) | exhibited cytotoxic activity | exhibited cytotoxicity | exhibited cytotoxicity | exhibited cytotoxicity | but not against SKHep1/Mock | no pathologic change | not observed | stronger cytotoxicity |
| CC(C)C[C@H](NC(=O)[C@@H]1CCCN1C(=O)[C@H](C)NC(=O)[C@@H](NC(=O)[C@H](CC(=O)O)NC(=O)[C@@H]1CCCN1C(=O)[C@H](CCC(N)=O)NC(=O)[C@H](C)N)[C@@H](C)O)C(=O)N1CCC[C@H]1C(=O)N[C@H](C(=O)O)C(C)C [RAB6KIFL-A2-10-284, AQPDTAPLPV] (H-AQPDTAPLPV-OH; N-terminus and C-terminus assumed) | exhibited cytotoxic activity | exhibited cytotoxicity | exhibited cytotoxicity | exhibited cytotoxicity | but not against SKHep1/Mock | – | – | – |

From US9132176B2, “RAB6KIFL/KIF20A epitope peptide and vaccines containing the same” (ONCOTHERAPY SCIENCE, INC., priority 2008, dated 2015)
